Target: T1, serotonin 1A receptor (Rattus norvegicus, UniProt P19327)
T1 construct: from tissue; host or cells: cerebral cortex of male Sprague-Dawley rats (synaptosomal membranes)
T1 sequence (P19327 1-422): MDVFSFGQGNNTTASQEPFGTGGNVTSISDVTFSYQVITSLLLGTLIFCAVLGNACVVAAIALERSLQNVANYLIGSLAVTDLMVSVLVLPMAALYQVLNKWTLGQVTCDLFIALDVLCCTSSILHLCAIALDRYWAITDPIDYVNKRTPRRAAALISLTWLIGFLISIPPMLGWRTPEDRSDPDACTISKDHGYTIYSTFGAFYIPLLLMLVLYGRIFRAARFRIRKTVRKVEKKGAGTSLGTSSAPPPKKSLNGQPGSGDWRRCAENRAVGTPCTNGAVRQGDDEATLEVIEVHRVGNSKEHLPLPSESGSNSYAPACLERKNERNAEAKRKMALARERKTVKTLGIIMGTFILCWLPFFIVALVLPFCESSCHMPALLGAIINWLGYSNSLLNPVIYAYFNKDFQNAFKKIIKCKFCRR
Test: serotonin 1A receptor binding (3H-8-OH-DPAT, rat cerebral cortex synaptosomal membranes)
Set-up: species or system Male Sprague-Dawley rats
Conditions: 0.4 nM 3H-8-OH-DPAT, pH 7.4, 37° C., 10 min, read-out: IC50 (concentration necessary to inhibit the binding of 3H-8-OH-DPAT by 50%)
Method: The compound of Example 14 was evaluated for its ability to interact with serotonin 1A receptor using the following procedure which is generally set forth in Wong et al., J. Neural Transm., 71, 207-218 (1988). Male Sprague-Dawley rats (110-150 g) from Harlan Industries (Cumberland, Ill.) were fed a Purina Chow ad libitum for at least 3 days before being used in the studies. Rats were killed by decapitation. The brains were rapidly removed, and the cerebral cortices were dissected out at 4° C.
Brain tissues were homogenized in 0.32M sucrose. After centrifugation at 1000×g for 10 min and then at 17,000×g for 20 min, a crude synaptosomal fraction was sedimented. The pellet was suspended in 100 vol of 50 mM Tris-HCl, pH 7.4, incubated at 37° C. for 10 min, and centrifuged at 50,000×g for 10 min. The process was repeated and the final pellet was suspended in ice-chilled 50 mM Tris-HCl, pH 7.4. […]
Binding of (^3 H-8-OH-DPAT) was performed according to the previously described method [Wong et al., J. Neural Transm. […] Radioactivity was measured with a liquid scintillation spectrometer. […] Specific binding of ^3 H-8-OH-DPAT is defined as the difference of radioactivity bound in the absence and in the presence of 10 μM unlabeled 8-OH-DPAT. […]

Q: `C#Cc1ccc2c3c1C[C@H](N(CCC)CCC)C[C@@H]3CN2` [Example 14, (2aS,4R)-6-ethynyl-4-(di-n-propylamino)-1,2,2a,3,4,5-hexahydrobenz[cd]indole] was tested. Which IC50 did it give?
A: 0.5 nM

— patent publication US5229410A, “6-substituted-hexahydrobenz[cd]indoles” (Eli Lilly and Company, priority 1991, dated 1993)
